# Experimental data published in publication PMC12072186, “A Novel Small Molecule Enhances Stable Dopamine Delivery to the Brain in Models of Parkinson’s Disease” (International Journal of Molecular Sciences, 2025).
# Where two headings read alike, the source gives them in different places.
# Experiments:
# [1] = cited from earlier work
# [2] = system: MPTP-treated C57BL/6 mice; experiment: Rotarod test in MPTP-treated mice; type: in vivo, mouse; conditions: MPTP 25 mg/kg i.p. day 1–5; treatment day 1–13; vs MPTP vehicle control
# Protocol: (§1) MPTP was injected to male C57BL/6 mice for 5 consecutive days (Figure 4A) to destroy DA neurons, and then the mice were treated with Pegasus alone or Pegasus + Benserazide compared to L-dopa alone or L-Dopa + Benserazide.
# (§2) From day 1 to day 5, MPTP was administered to all the groups except Naive at a dose of 25 mg/kg, i.p., QD. Treatment with Pegasus alone (50 mg/kg, i.p., BID), a combination of Pegasus 50 mg/kg, BID + Benserazide 10 mg/kg, QD, or a combination of L-Dopa 10 mg/kg, QD + Benserazide 10 mg/kg, QD or standalone L-Dopa 10 mg/kg, QD, started on day 1 and continued until day 13. On day 13, after the first dose of Pegasus, 4 animals/time point from each group were sacrificed at 0.5, 1, 3, 6, and 12 h, and the blood and brains were collected.
# The mice were placed on an accelerating Rotarod (Columbus Instruments, Columbus, OH, USA) equipped with individual timers for each mouse. […] The mice were trained for 3 consecutive days before the final measurement.
# [3] = system: MPTP-treated C57BL/6 mice; experiment: Grip strength test in MPTP-treated mice; type: in vivo, mouse; conditions: MPTP 25 mg/kg i.p. day 1–5; treatment day 1–13; vs MPTP vehicle control
# Protocol: as §1, §2
# The maximal muscle/grip strength of forelimbs was measured using a strength meter.
# [4] = In vivo metabolism, metabolite profiling in rat brain and plasma (LC-MS/MS); conditions: male, Sprague Dawley, intraperitoneal, 50 mg/kg; relative abundance brain vs plasma, rat
# Protocol: In vivo metabolism: We performed a metabolism study (Figure 2) in male Sprague Dawley rats (6–8 weeks old) after a single i.p. injection of 50 mg/kg Pegasus. Plasma and brain samples were serially collected and assessed for the presence of possible phase-I and phase-II metabolites. […] The relative abundance of Pegasus and its metabolites in the brain and plasma was determined at the ionization parameters of the parent.
# Metabolite profiling was performed in rat brain and plasma samples to detect phase-I and phase-II metabolites in male Sprague Dawley rats (6–8 weeks old, n = 6) injected (i.p.) with 50 mg/kg Pegasus. The formulation vehicle of Pegasus was 5% DMSO + 35% polyethylene glycol (PEG) 400 + 60% normal saline, and this formulation was used to measure the plasma and brain concentrations of Pegasus and all other metabolites. All samples obtained after Pegasus dosing in rats by the i.p. route of administration were used for metabolite profiling and compared to normal saline. Blood (n = 16 samples) was collected via retro-orbital plexus puncture 0.25, 1, 4, 6, 8, and 24 h pre-dose, and brain sampling was 1, 4, and 24 h post-dose (n = 6 per group). The brain samples were cleaned and perfused, then washed with PBS. The brains (approximately 1.5 g) were transferred to a 50 mL centrifuge tube and 36 mL of ice-cold PBS was added. The mixture was homogenized for about 1–2 min to obtain a uniform suspension. The precipitate was allowed to settle for 30 min at 4 °C, and 15 mL of the middle layer was collected. The plasma and brain samples were processed by the protein precipitation method. In total, 175 μL of acetonitrile was added to 25 μL of plasma samples. The samples were mixed, followed by centrifugation at 4000 rpm for 20 min. The supernatant from the samples was subjected to LC-MS/MS analysis.
# The samples were analyzed by liquid chromatography tandem mass spectrometry (HPLC: LC series, Shimadzu, Chiyoda-ku, Tokyo, Japan; mass spectrometer: API4000 Triple Quad mass spectrometer, Applied Biosystems, Carlsbad, CA, USA). The samples (n = 6) were processed using protein precipitation and 1 mM stock solution, prepared in DMSO, spiked into acetonitrile to a final concentration of 4 µM, and processed using liquid chromatography tandem mass spectrometry, employing a linear gradient method using MH+/MH−(Q1) and product ion (MS/MS) scans. The evaluation of the Pegasus metabolites included demethylation, de-hydroxylation, amide cleavage, oxidation, de-hydrogenation, glucuronidation, sulfation, glutathione conjugation, and several other possibilities. The relative abundance of Pegasus and its metabolites in the brain and plasma was determined at the ionization parameters of the parent.
# MPTP models of PD = system: MPTP models of PD; parameters: method as in PMID 11724929; conditions: cited from earlier work
structure (smiles),measurement,setting,value
N[C@@H](Cc1ccc(O)c(O)c1)C(=O)O [L-Dopa],Half-life T1/2,[1]; in combination with DDCI,60 to 90 min
same,Levodopa brain entry,[1]; in combination with dopa-carboxylase enzyme inhibitor (DDCI),up to 10%
same,Half-life T1/2,[1]; levodopa administered alone,46.2 to 64.8 min
same,Share of oral dose that reaches the brain,[1]; levodopa administered alone,1%
same,Share reaching the brain,[1]; with DDCI and selective COMT inhibitors,up to 40%
same,Latency to fall (Rotarod),[2],significantly increased latency to fall
same,Forelimb grip strength,[3],significantly reversed back to normal levels
NC(=O)CCC(=O)NCCc1cc(O)c(O)c(SCC(N)C(=O)O)c1 (stereo not drawn) [M11],Kp,[4],1.31
CN(C)c1ccc(O)c2c1C[C@H]1C[C@H]3[C@H](N(C)C)C(O)=C(C(N)=O)C(=O)[C@@]3(O)C(O)=C1C2=O [Minocycline],Striatal cell loss,MPTP models of PD,prevents striatal cell loss
